From the supplement of paper PMC10307832

Legend:
Experiment in all cases: relative viability (nuclei count vs DMSO), 5 days (fraction); higher = more cells survive
MK-2206 + Lapatinib = compound: NC1(c2ccc(-c3nc4ccn5c(=O)[nH]nc5c4cc3-c3ccccc3)cc2)CCC1 [MK-2206] + CS(=O)(=O)CCNCc1ccc(-c2ccc3ncnc(Nc4ccc(OCc5cccc(F)c5)c(Cl)c4)c3c2)o1 [Lapatinib] (partner 2 µM)
Summary of the method: (§1)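 Lung cancer cell lines, seeded in 1536-well plates, were treated the following day by pin tool with a single drug or with five library-drug doses (not always all listed) in √10 steps on top of a fixed anchor-drug dose. Cells were fixed and nuclei stained in one step after 5 days, and nuclei were counted. Relative viability is the nuclei count for treated wells divided by that for vehicle wells, reported as medians of duplicate plates.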

Pictilisib + Luminespib = compound: CS(=O)(=O)N1CCN(Cc2cc3nc(-c4cccc5[nH]ncc45)nc(N4CCOCC4)c3s2)CC1 [Pictilisib] + CCNC(=O)c1noc(-c2cc(C(C)C)c(O)cc2O)c1-c1ccc(CN2CCOCC2)cc1 [Luminespib] (partner 0.01 µM)
Summary of the method: as §1

Pictilisib + Decitabine = compound: CS(=O)(=O)N1CCN(Cc2cc3nc(-c4cccc5[nH]ncc45)nc(N4CCOCC4)c3s2)CC1 [Pictilisib] + Nc1ncn([C@H]2C[C@H](O)[C@@H](CO)O2)c(=O)n1 [Decitabine] (partner 2 µM)
Summary of the method: as §1

Pictilisib + Lapatinib = compound: CS(=O)(=O)N1CCN(Cc2cc3nc(-c4cccc5[nH]ncc45)nc(N4CCOCC4)c3s2)CC1 [Pictilisib] + CS(=O)(=O)CCNCc1ccc(-c2ccc3ncnc(Nc4ccc(OCc5cccc(F)c5)c(Cl)c4)c3c2)o1 [Lapatinib] (partner 2 µM)
Summary of the method: as §1

Cell Line | relative viability (MK-2206 + Lapatinib; first compound 0.01 µM) | relative viability (MK-2206 + Lapatinib; first compound 0.03162 µM) | relative viability (MK-2206 + Lapatinib; first compound 0.3162 µM) | relative viability (MK-2206 + Lapatinib; first compound 1 µM) | relative viability (Pictilisib + Luminespib; first compound 0.02 µM) | relative viability (Pictilisib + Luminespib; first compound 0.06325 µM) | relative viability (Pictilisib + Luminespib; first compound 0.6325 µM) | relative viability (Pictilisib + Luminespib; first compound 2 µM) | relative viability (Pictilisib + Decitabine; first compound 0.02 µM) | relative viability (Pictilisib + Decitabine; first compound 0.06325 µM) | relative viability (Pictilisib + Decitabine; first compound 0.6325 µM) | relative viability (Pictilisib + Decitabine; first compound 2 µM) | relative viability (Pictilisib + Lapatinib; first compound 0.02 µM) | relative viability (Pictilisib + Lapatinib; first compound 0.06325 µM) | relative viability (Pictilisib + Lapatinib; first compound 0.6325 µM) | relative viability (Pictilisib + Lapatinib; first compound 2 µM)
NCI-H661 | 0.422 | 0.581 | 0.503 | 0.51 | 0.969 | 0.938 | 0.953 | 0.813 | 0.546 | 0.58 | 0.523 | 0.412 | 0.461 | 0.444 | 0.447 | 0.27
NCI-H727 | 0.873 | 1.05 | 0.856 | 0.513 | 0.443 | 0.334 | 0.29 | 0.346 | 0.651 | 0.979 | 0.699 | 0.781 | 0.876 | 0.825 | 0.781 | 0.654
NCI-H838 | 1.04 | 1.18 | 1.01 | 0.675 | 0.332 | 0.262 | 0.241 | 0.258 | 0.474 | 0.492 | 0.381 | 0.371 | 1.15 | 0.875 | 0.728 | 0.387
NCI-H1355 | 0.97 | 1.04 | 0.851 | 0.743 | 0.731 | 0.593 | 0.582 | 0.272 | 0.336 | 0.388 | 0.383 | 0.331 | 1.01 | 1 | 0.981 | 0.615
NCI-H1395 | 1.01 | 1.3 | 0.774 | 0.759 | 0.704 | 0.838 | 0.748 | 0.534 | 0.708 | 0.798 | 0.652 | 0.5 | 1.18 | 1.1 | 0.884 | 0.563
NCI-H1437 | 0.778 | 0.783 | 0.815 | 0.475 | 1.14 | 1.16 | 1.25 | 1.19 | 0.499 | 0.534 | 0.536 | 0.438 | 0.768 | 0.859 | 0.605 | 0.313
NCI-H1650 | 0.685 | 0.768 | 0.687 | 0.784 | 0.224 | 0.175 | 0.201 | 0.207 | 0.41 | 0.39 | 0.438 | 0.432 | 1.02 | 0.806 | 0.672 | 0.51
NCI-H1651 | 0.878 | 0.743 | 0.99 | 0.606 | 0.841 | 0.65 | 0.889 | 0.473 | 0.473 | 0.603 | 0.505 | 0.413 | 0.919 | 0.721 | 0.568 | 0.424
NCI-H1666 | 0.633 | 0.577 | 0.354 | 0.386 | 1.02 | 1.07 | 0.937 | 0.651 | 0.659 | 0.719 | 0.702 | 0.574 | 0.666 | 0.725 | 0.476 | 0.307
NCI-H1734 | 0.758 | 1.05 | 0.789 | 0.869 | 0.174 | 0.179 | 0.164 | 0.171 | 0.472 | 0.481 | 0.418 | 0.338 | 1.1 | 1.11 | 0.653 | 0.41
NCI-H1755 | 1.02 | 1.05 | 0.965 | 0.962 | 0.412 | 0.384 | 0.305 | 0.189 | 0.743 | 0.667 | 0.748 | 0.565 | 1.04 | 1 | 0.93 | 0.537
NCI-H1792 | 0.84 | 0.983 | 0.909 | 0.92 | 0.366 | 0.41 | 0.25 | 0.225 | 0.509 | 0.592 | 0.491 | 0.22 | 0.923 | 0.928 | 0.809 | 0.387
NCI-H1793 | 0.616 | 0.742 | 0.745 | 0.617 | 0.152 | 0.189 | 0.152 | 0.168 | 0.436 | 0.518 | 0.343 | 0.239 | 0.693 | 0.963 | 0.61 | 0.336
NCI-H1915 | 0.954 | 0.984 | 0.978 | 1.02 | 0.784 | 0.864 | 0.699 | 0.642 | 0.259 | 0.251 | 0.259 | 0.283 | 0.96 | 1.02 | 0.916 | 0.935
NCI-H1944 | 0.829 | 0.849 | 0.823 | 0.904 | 0.768 | 0.46 | 0.498 | 0.239 | 0.423 | 0.352 | 0.391 | 0.315 | 0.969 | 0.753 | 0.597 | 0.402
NCI-H1975 | 0.837 | 0.996 | 0.781 | 0.534 | 0.19 | 0.172 | 0.142 | 0.136 | 0.385 | 0.377 | 0.329 | 0.257 | 0.94 | 0.781 | 0.541 | 0.212
NCI-H1993 | 0.869 | 0.83 | 0.749 | 0.758 | 0.73 | 0.634 | 0.55 | 0.523 | 0.692 | 0.483 | 0.459 | 0.458 | 0.878 | 0.895 | 0.783 | 0.705
NCI-H2009 | 0.825 | 1.01 | 0.936 | 0.986 | 1.01 | 1.05 | 1.04 | 0.773 | 0.443 | 0.406 | 0.412 | 0.329 | 1.06 | 0.932 | 0.858 | 0.844
